Patent publication US20160332972A1, “UREA HYDANTOIN DERIVATIVES AS FORMYL PEPTIDE MODULATORS” (ALLERGAN, INC., priority 2014, published 2016)

Target: T1, FPR2 (Homo sapiens, UniProt P25090)
T1 construct: expressed in transfected cells
T1 sequence (P25090 1-351): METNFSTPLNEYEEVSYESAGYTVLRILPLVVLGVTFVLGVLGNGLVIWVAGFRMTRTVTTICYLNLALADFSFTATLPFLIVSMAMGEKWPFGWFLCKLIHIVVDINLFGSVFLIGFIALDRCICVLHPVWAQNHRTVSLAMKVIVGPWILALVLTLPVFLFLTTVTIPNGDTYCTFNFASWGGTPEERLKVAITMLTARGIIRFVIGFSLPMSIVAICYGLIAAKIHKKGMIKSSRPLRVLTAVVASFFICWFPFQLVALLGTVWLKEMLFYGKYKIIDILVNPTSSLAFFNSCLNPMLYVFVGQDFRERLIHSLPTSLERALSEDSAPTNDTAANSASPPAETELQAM
Assay: FLIPR Tetra calcium activity assay in CHO-Gα16 cells stably expressing FPR2
Format: cell-based
Method: CHO-Gα16 cells stably expressing FPR2 were cultured in F12 media (10% FBS, 1% PSA, 400 μg/ml geneticin and 50 μg/ml hygromycin). In general, the day before the experiment, 18,000 cells/well were plated in a 384-well clear bottom poly-D-lysine coated plate. The following day the screening compound-induced calcium activity was assayed on a FLIPR^Tetra. The drug plates were prepared in 384-well microplates using EP3 and MultiPROBE robotic liquid handling systems. Compounds were tested at concentrations ranging from 0.61 to 10,000 nM. Results are expressed as EC50 (nM) and % efficacy values.

CCOC(=O)CCNCCC1(CC)NC(=O)N(NC(=O)Nc2ccc(Br)cc2)C1=O (centres unmarked) [Compound 1, Ethyl 3-{[2-(1-{[(4-Bromophenyl)carbamoyl]amino}-4-ethyl-2,5-dioxoimidazolidin-4-yl)ethyl]amino}propanoate]
FPR2 Gα16-CHO (% eff) (% efficacy, calcium activity): (0.97) % | EC50 (compound-induced calcium activity, tested at 0.61 to 10,000 nM): 49 nM
